# Patent publication US9096548B2, “Pyrazine amide compounds” (Boehringer Ingelheim International GmbH, priority 2013, dated 2015)
# Structures can show the parent of a compound that is named as a salt.
# Biological target: T1, ENaC (Epithelial Sodium Channel) (Mus musculus, UniProt Q61180+Q9WU38+Q9WU39)
# T1 construct: Mouse kidney M−1 cells were cultivated in DMEM; endogenous in cells; host or cells: Mouse kidney M-1 cells, cultivated with dexamethasone on transwell filters
# T1 sequence (Q61180 1-699): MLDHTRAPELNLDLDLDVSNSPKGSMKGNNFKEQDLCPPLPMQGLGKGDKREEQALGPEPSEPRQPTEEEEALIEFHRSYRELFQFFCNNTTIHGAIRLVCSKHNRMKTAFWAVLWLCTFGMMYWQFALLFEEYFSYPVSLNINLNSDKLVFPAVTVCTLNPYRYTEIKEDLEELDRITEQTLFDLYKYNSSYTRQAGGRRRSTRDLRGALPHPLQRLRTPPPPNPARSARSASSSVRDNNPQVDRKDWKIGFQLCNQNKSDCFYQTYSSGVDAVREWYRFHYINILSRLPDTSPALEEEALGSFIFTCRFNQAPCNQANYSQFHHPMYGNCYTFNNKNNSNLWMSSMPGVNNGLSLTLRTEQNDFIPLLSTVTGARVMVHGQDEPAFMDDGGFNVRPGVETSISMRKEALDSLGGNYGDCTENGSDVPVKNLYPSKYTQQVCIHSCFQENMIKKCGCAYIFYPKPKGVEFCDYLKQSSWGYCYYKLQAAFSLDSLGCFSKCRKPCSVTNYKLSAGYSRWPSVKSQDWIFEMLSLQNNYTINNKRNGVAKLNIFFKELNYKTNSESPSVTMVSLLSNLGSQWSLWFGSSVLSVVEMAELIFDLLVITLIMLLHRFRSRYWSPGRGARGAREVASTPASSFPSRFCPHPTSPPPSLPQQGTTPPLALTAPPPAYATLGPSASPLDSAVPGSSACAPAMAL
# T1 sequence (Q9WU38 1-638): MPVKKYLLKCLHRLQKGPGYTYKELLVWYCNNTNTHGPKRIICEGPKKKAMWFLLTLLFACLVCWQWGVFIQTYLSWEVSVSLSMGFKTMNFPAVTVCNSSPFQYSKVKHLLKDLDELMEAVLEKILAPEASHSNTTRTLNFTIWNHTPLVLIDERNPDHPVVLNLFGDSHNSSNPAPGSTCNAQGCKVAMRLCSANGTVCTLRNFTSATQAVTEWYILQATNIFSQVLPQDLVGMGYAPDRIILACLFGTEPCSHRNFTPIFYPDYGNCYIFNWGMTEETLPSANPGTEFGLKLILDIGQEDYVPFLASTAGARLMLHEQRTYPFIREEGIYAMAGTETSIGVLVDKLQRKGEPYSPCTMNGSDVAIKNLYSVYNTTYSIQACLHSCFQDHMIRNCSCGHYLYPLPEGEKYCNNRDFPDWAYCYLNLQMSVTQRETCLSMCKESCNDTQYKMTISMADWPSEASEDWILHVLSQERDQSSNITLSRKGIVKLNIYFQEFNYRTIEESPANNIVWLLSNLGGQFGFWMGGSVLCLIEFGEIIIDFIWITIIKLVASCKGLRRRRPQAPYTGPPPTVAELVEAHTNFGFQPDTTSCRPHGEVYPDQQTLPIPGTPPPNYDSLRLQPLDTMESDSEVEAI
# T1 sequence (Q9WU39 1-655): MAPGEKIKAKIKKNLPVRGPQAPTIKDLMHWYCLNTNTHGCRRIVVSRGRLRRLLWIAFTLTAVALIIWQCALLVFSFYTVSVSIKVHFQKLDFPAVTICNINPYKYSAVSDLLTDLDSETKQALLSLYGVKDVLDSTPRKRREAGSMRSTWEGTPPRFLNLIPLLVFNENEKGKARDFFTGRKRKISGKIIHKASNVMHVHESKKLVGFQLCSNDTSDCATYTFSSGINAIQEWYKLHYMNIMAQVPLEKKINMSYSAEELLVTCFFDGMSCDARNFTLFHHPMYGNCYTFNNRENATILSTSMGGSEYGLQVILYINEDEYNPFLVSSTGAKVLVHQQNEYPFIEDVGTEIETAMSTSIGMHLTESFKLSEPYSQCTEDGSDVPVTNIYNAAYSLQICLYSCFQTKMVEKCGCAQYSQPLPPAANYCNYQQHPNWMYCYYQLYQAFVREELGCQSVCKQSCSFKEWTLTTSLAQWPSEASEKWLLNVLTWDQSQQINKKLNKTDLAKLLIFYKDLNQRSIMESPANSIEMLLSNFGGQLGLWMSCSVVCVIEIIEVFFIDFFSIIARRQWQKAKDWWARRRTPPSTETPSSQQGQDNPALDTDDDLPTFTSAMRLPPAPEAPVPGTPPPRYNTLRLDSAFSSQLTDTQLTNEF
# Test: Ussing Chamber assay (short circuit current, amiloride sensitive I_SC)
# Type: cell-based
# Settings: Ussing chamber, mouse kidney M-1 cells, short circuit current, compound added to the apical solution; read-out: IC50
# How it was run: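 Mouse kidney M-1 cells grown 10–12 days on filters with 5 μM dexamethasone, measured in Caco-2 transport buffer at 37° C under voltage clamp. Compound applied apically at 3 μM or 1-3-10 μM; 3 μM amiloride added at end. Short circuit current inhibition given as percent of amiloride effect or IC50.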
row,SMILES,IC50
1,CN(CCO)C(=O)COc1ccc(CCC[N+]2(CCCc3ccc(OCC(=O)N(C)CCO)cc3)CCC[C@H](NC(=O)c3nc(Cl)c(N)nc3N)C2)cc1 [Example 6.61],0.108 µM
2,"COc1ccc(OCC[N+]2(CCOc3ccc(OC)cc3)CCC[C@H](NC(=O)c3nc(Cl)c(N)nc3N)C2)cc1 [Example 10.6, 3-[(3,5-Diamino-6-chloro-pyrazine-2-carbonyl)-amino]-1,1-bis-[2-(4-methoxy-phenoxy)-ethyl]-piperidinium chloride]",0.104 µM
3,COc1ccc(CCC[N@+]2(C)CCC[C@H](NC(=O)c3nc(Cl)c(N)nc3N)C2)cc1 [Example 3.1],0.75 µM
4,COc1ccc(CCC[N+]2(Cc3ccccc3)CCCC(NC(=O)c3nc(Cl)c(N)nc3N)C2)cc1 (centres unmarked) [Example 3.7],0.14 µM

# Next, values leading:
row,IC50,SMILES
1,0.092 µM,Nc1nc(N)c(C(=O)N[C@H]2CCC[N+](CCCc3ccc(OCC(=O)N4CCC(O)CC4)cc3)(CCCc3ccc(OCC(=O)N4CCC(O)CC4)cc3)C2)nc1Cl [Example 6.56]
2,0.085 µM,CN(CCS(C)(=O)=O)C(=O)COc1ccc(CCC[N+]2(CCCc3ccc(OCC(=O)N(C)CCS(C)(=O)=O)cc3)CCC[C@H](NC(=O)c3nc(Cl)c(N)nc3N)C2)cc1 [Example 6.48]
3,0.08 µM,COc1ccc(CCC[N+](C)(CCCc2ccc(OC)cc2)[C@@H]2C[C@H]2NC(=O)c2nc(Cl)c(N)nc2N)cc1 [Example 2.1]
4,0.046 µM,Nc1nc(N)c(C(=O)N[C@H]2CCC[N+](CCCc3ccc(OCC(=O)NC(CO)CO)cc3)(CCCc3ccc(OCC(=O)NC(CO)CO)cc3)C2)nc1Cl [Example 6.20]
5,0.042 µM,Nc1nc(N)c(C(=O)N[C@H]2CCC[N+](CCCc3ccc(OCC(=O)NCCN4CCOCC4)cc3)(CCCc3ccc(OCC(=O)NCCN4CCOCC4)cc3)C2)nc1Cl [Example 6.63]
6,0.034 µM,"N#Cc1ccc(CCC[N+]2(CCCc3ccc(C#N)cc3)CCC[C@H](NC(=O)c3nc(Cl)c(N)nc3N)C2)cc1 [Example 10.8, 1,1-Bis-[3-(4-cyano-phenyl)-propyl]-3-[(3,5-diamino-6-chloro-pyrazine-2-carbonyl)-amino]-piperidinium chloride]"
7,0.03 µM,COc1ccc(CCC[N+]2(CCCc3ccc(OC)cc3)CCC(NC(=O)c3nc(Cl)c(N)nc3N)C2)cc1 (centres unmarked) [Example 1.1]
8,0.028 µM,CS(=O)(=O)CCNC(=O)COc1ccc(CCC[N+]2(CCCc3ccc(OCC(=O)NCCS(C)(=O)=O)cc3)CCC[C@H](NC(=O)c3nc(Cl)c(N)nc3N)C2)cc1 [Example 6.37]
9,0.02 µM,COc1ccc(CCC[N+]2(CCCc3ccc(C(=O)NCCCN(C)C)cc3)CCCC(NC(=O)c3nc(Cl)c(N)nc3N)C2)cc1 (centres unmarked) [Example 5.7]
10,0.018 µM,Cn1cncc1CNC(=O)COc1ccc(CCC[N+]2(CCCc3ccc(OCC(=O)NCc4cncn4C)cc3)CCC[C@H](NC(=O)c3nc(Cl)c(N)nc3N)C2)cc1 [Example 6.41]
11,0.016 µM,Nc1nc(N)c(C(=O)N[C@H]2CCC[N+](CCCc3ccc(OCC(=O)NCCN4CCCC4=O)cc3)(CCCc3ccc(OCC(=O)NCCN4CCCC4=O)cc3)C2)nc1Cl [Example 6.35]
12,0.013 µM,Nc1nc(N)c(C(=O)N[C@H]2CCC[N+](CCCc3ccc(OCC(=O)NCCCO)cc3)(CCCc3ccc(OCC(=O)NCCCO)cc3)C2)nc1Cl [Example 6.18]
13,0.006 µM,Nc1nc(N)c(C(=O)N[C@H]2CCC[N+](CCCc3ccc(OCC(=O)NCCc4ccccn4)cc3)(CCCc3ccc(OCC(=O)NCCc4ccccn4)cc3)C2)nc1Cl [Example 6.50]
14,0.006 µM,COc1ccc(CCC[N+]2(CCCc3ccccc3)CCCC(NC(=O)c3nc(Cl)c(N)nc3N)C2)cc1 (centres unmarked) [Example 3.5]
15,0.005 µM,Nc1nc(N)c(C(=O)N[C@H]2CCC[N+](CCCc3ccc(OCC(=O)NCc4ccccn4)cc3)(CCCc3ccc(OCC(=O)NCc4ccccn4)cc3)C2)nc1Cl [Example 6.62]

# Same assay, conditions: Ussing chamber, mouse kidney M-1 cells, short circuit current; unit inferred; read-out: IC50
row,SMILES,IC50
1,"COC(=O)COc1ccc(CCC[N+]2(CCCc3ccc(OCC(=O)O)cc3)CCCC(NC(=O)c3nc(Cl)c(N)nc3N)C2)cc1 (centres unmarked) [Example 8, 1-[3-(4-Carboxymethoxy-phenyl)-propyl]-3-[(3,5-diamino-6-chloro-pyrazine-2-carbonyl)amino]-1-[3-(4-methoxycarbonylmethoxy-phenyl)-propyl]-piperidinium trifluoroacetate]",0.165 µM
2,"COC(=O)COc1ccc(CCC[N+]2(CCCc3ccc(OCC(=O)NCCN(C)C)cc3)CCCC(NC(=O)c3nc(Cl)c(N)nc3N)C2)cc1 (centres unmarked) [Example 8.1, 3-[(3,5-Diamino-6-chloro-pyrazine-2-carbonyl)-amino]-1-(3-{4-[(2-dimethylaminoethylcarbamoyl)-methoxy]-phenyl}-propyl)-1-[3-(4-methoxycarbonylmethoxy-phenyl)-propyl]-piperidinium chloride hydrochloride]",0.085 µM
3,"COc1ccc(CCC[N+]2(CCCc3ccc(C(=O)NCCC(=O)O)cc3)CCCC(NC(=O)c3nc(Cl)c(N)nc3N)C2)cc1 (centres unmarked) [Example 5.10, 1-{3-[4-(Carboxyethyl-carbamoyl)-phenyl]-propyl}-3-[(3,5-diamino-6-chloro-pyrazine-2-carbonyl)-amino]-1-[3-(4-methoxy-phenyl)-propyl]-piperidinium chloride]",0.15 µM
4,"COC(=O)COc1ccc(CCC[N+]2(CCCc3ccc(OCC(=O)NCCOCCOCCO)cc3)CCCC(NC(=O)c3nc(Cl)c(N)nc3N)C2)cc1 (centres unmarked) [Example 8.2, 3-[(3,5-Diamino-6-chloro-pyrazine-2-carbonyl)-amino]-1-{3-[4-({2-[2-(2-hydroxy-ethoxy)ethoxy]-ethylcarbamoyl}-methoxy)-phenyl]-propyl}-1-[3-(4-methoxycarbonylmethoxy-phenyl)-propyl]-piperidinium chloride]",0.37 µM
5,"Nc1nc(N)c(C(=O)N[C@H]2CCC[N+](CCCc3ccc(OCCOCCOCCOCCO)cc3)(CCCc3ccc(OCCOCCOCCOCCO)cc3)C2)nc1Cl [Example 9.4, 3-[(3,5-Diamino-6-chloro-pyrazine-2-carbonyl)-amino]-1,1-bis-{3-[4-(2-{2-[2-(2-hydroxy-ethoxy)-ethoxy]-ethoxy}-ethoxy)-phenyl]-propyl}-piperidinium chloride]",0.067 µM

# Same assay, conditions: Ussing chamber, mouse kidney M-1 cells, short circuit current; value printed in the example text with μM; read-out: IC50
row,SMILES,IC50
1,"COc1ccc(CCC[N+]2(CC(=O)O)CCCC(NC(=O)c3nc(Cl)c(N)nc3N)C2)cc1 (centres unmarked) [Example 13, 1-Carboxymethyl-3-[(3,5-diamino-6-chloro-pyrazine-2-carbonyl)-amino]-1-[3-(4-methoxy-phenyl)propyl]-piperidinium chloride]",> 1 µM
2,"COC(=O)c1ccc(CCC[N+]2(CCCc3ccc(OC)cc3)CCCC(NC(=O)c3nc(Cl)c(N)nc3N)C2)cc1 (centres unmarked) [Example 5, 3-[(3,5-Diamino-6-chloro-pyrazine-2-carbonyl)-amino]-1-[3-(4-methoxycarbonyl-phenyl)propyl]-1-[3-(4-methoxy-phenyl)-propyl]-piperidinium chloride]",0.038 µM
